Laboratory results: patent US20080108608A1, “Pyrimidines With Tie2 (Tek) Activity” (ASTRAZENECA AB, priority 2003, published 2008)

Key:
[1] = target: T1, Tie2 receptor tyrosine kinase (Homo sapiens, UniProt Q02763); assay: In vitro receptor tyrosine kinase inhibition assay (Test (a)), ELISA based; format: biochemical; conditions: recombinant human Tie2 kinase domain
T1 construct: consist of only the intracellular portion C-terminal portion of the respective receptor, within which is found the kinase domain; made in house; host or cells: baculovirus/Sf21 insect cells (or alternative equivalent); used as cleared cell lysate
Description: a. In Vitro Receptor Tyrosine Kinase Inhibition Assay
To test for inhibition of Tie2 receptor tyrosine kinase, compounds are evaluated in a non-cell based protein kinase assay by their ability to inhibit the protein kinase enzyme phosphorylation of a tyrosine containing polypeptide substrate in an ELISA based microtitre plate assay. In this particular case, the assay was to determine the IC50, for three different recombinant human tyrosine kinases Tie2, KDR and Flt.
To facilitate production of the tyrosine kinases, recombinant receptor genes were produced using standard molecular biology cloning and mutagenesis techniques. These recombinant proteins fragments encoded within these genes consist of only the intracellular portion C-terminal portion of the respective receptor, within which is found the kinase domain. The recombinant genes encoding the kinase domain containing fragments were cloned and expressed in standard baculovirus/Sf21 system (or alternative equivalent) […]
Constitutive kinase activity of these recombinant proteins was determined by their ability to phosphorylate a synthetic peptide (made up of a random co-polymer of Glutamic Acid, Alanine and Tyrosine in the ratio of 6:3:1). […]
The immobilised phospho-peptide product of the reaction was detected by immunological methods. […] Following extensive washing with PBS-T, HRP activity in each well of the plate was measured colorimetrically using 22′-Azino-di-[3-ethylbenzthiazoline sulfonate (6)]diammonium salt crystals ABTS (Sigma P4922—prepared as per manufactures instructions) as a substrate incubated for 30-45 minutes to allow colour development, before 100 ul of 1M H2SO4 was added to stop the reaction.
Quantification of colour development and thus enzyme activity was achieved by the measurement of absorbance at 405 nm on a Molecular Devices ThermoMax microplate reader. Kinase inhibition for a given compound was expressed as an IC50 value. […] The range of phosphorylation was calculated from the positive (vehicle plus ATP) and negative (vehicle minus ATP) control values.

Tie2 receptor = target: T2, Tie2 receptor (Homo sapiens, UniProt Q02763); assay: Cellular Tie2 autophosphorylation assay (Test (b)); format: cell-based; conditions: Ang1 ligand stimulated whole cells, e.g. EA.hy926/B3; read-out: IC50 (μM) Test (b): Inhibition of autophosphorylation of Tie2 receptor tyrosine kinase
T2 construct: natural cell lines or primary cells which are known to express the receptor of choice; endogenous in cells; host or cells: EA.hy926/B3 cells (HUVEC named as an alternative)
Description: b. Cellular Tie2 Autophosphorylation Assay
This assay is based on measuring the ability of compounds to inhibit autophosphorylation of the Tie2 receptor which normally leads to the production of “activated” receptor that in turn initiates the particular signal transduction pathways associated with the receptor function.
Autophosphorylation can be achieved by a number of means. It is known that expression of recombinant kinase domains in baculoviral systems can lead to the production of phosphorylated and activated receptor. It is also reported that over expression of receptors in recombinant cell lines can itself lead to receptor autophosphorylation in the absence of the ligand (Heldin C-H. 1995 Cell: 80, 213-223; Blume-J. P, Hunter T. 2001 Nature: 411, 355-65). Furthermore, there are numerous literature examples in which chimaeric receptors have been constructed. In these cases the natural, external cell surface domain of the receptor has been replaced with that of a domain which is known to be readily dimerised via the addition of the appropriate ligand (e.g. TrkA-Tie2/NGF ligand (Marron, M. B., et al., 2000 Journal of Biological Chemistry: 275:39741-39746) or C-fins-Tie-1/CSF-1 ligand (Kontos, C. D., et al., 2002 Molecular and Cellular Biology: 22, 1704-1713). Thus when the chimaeric receptor expressed in a host cell line and the respective ligand is added, this induces autophosphorylation of the chimeric receptor's kinase domain. This approach has the advantage of often allowing a known (and often easily obtained) ligand to be used instead of having to identify and isolate the natural ligand for each receptor of interest.
Naturally if the ligand is available one can use natural cell lines or primary cells which are known to express the receptor of choice and simply stimulate with ligand to achieve ligand induced phosphorylation. […]

T2 sequence (Q02763 23-1124): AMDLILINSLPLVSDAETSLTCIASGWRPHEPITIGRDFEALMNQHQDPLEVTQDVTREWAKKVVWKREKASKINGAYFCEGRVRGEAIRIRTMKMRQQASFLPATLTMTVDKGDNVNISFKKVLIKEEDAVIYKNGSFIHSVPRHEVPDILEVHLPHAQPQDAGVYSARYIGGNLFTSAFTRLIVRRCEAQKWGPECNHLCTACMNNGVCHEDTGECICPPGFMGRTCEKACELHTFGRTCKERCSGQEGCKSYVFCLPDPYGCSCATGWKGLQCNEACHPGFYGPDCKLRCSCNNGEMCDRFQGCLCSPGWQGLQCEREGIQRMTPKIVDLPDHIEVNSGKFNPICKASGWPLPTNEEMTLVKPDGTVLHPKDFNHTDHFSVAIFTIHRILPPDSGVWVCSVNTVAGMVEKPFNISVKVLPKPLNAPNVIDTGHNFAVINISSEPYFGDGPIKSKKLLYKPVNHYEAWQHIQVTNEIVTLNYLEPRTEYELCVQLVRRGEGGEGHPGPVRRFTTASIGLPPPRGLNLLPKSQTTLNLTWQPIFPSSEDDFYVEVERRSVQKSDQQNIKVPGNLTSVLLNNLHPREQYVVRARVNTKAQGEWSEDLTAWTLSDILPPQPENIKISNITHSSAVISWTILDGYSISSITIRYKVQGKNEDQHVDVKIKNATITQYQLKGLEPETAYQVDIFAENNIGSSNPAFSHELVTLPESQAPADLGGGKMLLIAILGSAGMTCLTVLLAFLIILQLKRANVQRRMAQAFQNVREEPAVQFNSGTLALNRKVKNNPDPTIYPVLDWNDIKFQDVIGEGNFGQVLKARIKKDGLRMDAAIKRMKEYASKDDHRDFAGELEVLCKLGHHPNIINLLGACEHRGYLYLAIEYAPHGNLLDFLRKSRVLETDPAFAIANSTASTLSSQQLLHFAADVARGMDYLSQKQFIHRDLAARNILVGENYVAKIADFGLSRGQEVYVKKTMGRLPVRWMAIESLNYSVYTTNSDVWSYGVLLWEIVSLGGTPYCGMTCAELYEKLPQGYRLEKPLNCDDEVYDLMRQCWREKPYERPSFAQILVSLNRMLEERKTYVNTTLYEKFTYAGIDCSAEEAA
T1 sequence (Q02763 770-1124 limits assumed): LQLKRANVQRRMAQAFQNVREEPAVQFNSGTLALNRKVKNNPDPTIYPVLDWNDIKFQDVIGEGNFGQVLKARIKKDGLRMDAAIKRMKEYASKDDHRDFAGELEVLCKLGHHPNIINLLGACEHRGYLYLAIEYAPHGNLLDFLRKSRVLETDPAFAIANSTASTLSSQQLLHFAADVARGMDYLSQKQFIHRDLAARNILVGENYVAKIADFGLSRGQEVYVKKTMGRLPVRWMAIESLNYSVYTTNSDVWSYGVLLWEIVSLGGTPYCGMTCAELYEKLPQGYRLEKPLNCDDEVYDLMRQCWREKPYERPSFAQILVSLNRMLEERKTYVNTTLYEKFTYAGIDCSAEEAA

Compound | IC50 [1] | IC50 (Tie2 receptor)
CC(C)(C)c1cc(NC(=O)Nc2cccc(C#Cc3cnc(NCCN4CCCC4)nc3)c2)no1 [Example 33, N-(5-tert-butylisoxazol-3-yl)-N′-[3-({2-[(2-pyrrolidin-1-ylethyl)amino]pyrimidin-5-yl}ethynyl)phenyl]urea] | 5.7 µM | 2.59 µM
Cc1cc(NC(=O)Nc2cccc(C#Cc3cnc(N)nc3)c2)on1 [Example 19, N-{3-[(2-aminopyrimidin-5-yl)ethynyl]phenyl}-N′-(3-methylisoxazol-5-yl)urea] | 19.9 µM | 0.337 µM
CC(C)(C)c1nnc(NC(=O)Nc2cccc(C#Cc3cnc(NCCN4CCCC4)nc3)c2)s1 [Example 48, N-(5-tert-butyl-1,3,4-thiadiazol-2-yl)-N′-[3-({2-[(2-pyrrolidin-1-ylethyl)amino]pyrimidin-5-yl}ethynyl)phenyl]urea] | 74.9 µM | 3.29 µM
